Laboratory results from US9879008B2, “2,3,4,6-tetra-substituted benzene-1,5-diamine derivatives, preparation method therefor and medicinal use thereof” (SHANGHAI HAIYAN PHARMACEUTICAL TECHNOLOGY CO., LTD., priority 2014, dated 2018).

Columns and labels:
H1975 cells = experiment: ELISA assay for cell activity of EGFR T790M inhibitor, H1975 cells; conditions: for Selective inhibitory activities against cell [IC50(A431 cell)/IC50(H1975 cell)]: ELISA, ratio of cell IC50 values; for IC50: Homo sapiens, NCI-H1975, 1 h, read-out: H1975 cell (IC50/nM)
H1975 cell = experiment: MTT cytostatic activity, H1975 cell; type: cell-based; conditions: MTT; for IC50: Homo sapiens, NCI-H1975, 72 h, read-out: H1975 cell (IC50/nM); for Selective inhibitory activity against cells [IC50(A431 cell)/IC50(H1975 cell)]: ratio of cell IC50 values;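 as to all read-outs here: cells in 96-well plates exposed to compound for 72 h, then given MTT for a further 4 h at 37 °C under 5% CO2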
A431 cell = experiment: MTT cytostatic activity, A431 cell; type: cell-based; conditions: Homo sapiens, A-431; MTT, 72 h; read-out: A431 cell (IC50/nM)
wild-type EGFR kinase = target: T1, wild-type EGFR kinase (Homo sapiens, UniProt P00533); experiment: z-lyte inhibition test against wild-type EGFR kinase; type: biochemical; conditions: 10 μM ATP, read-out: EGFR WT (IC50/nM);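 also: reaction volume 10 µL holding 0.8 ng/µL enzyme and 2 µM Tyr04 substrate, with DMSO at 2% once compounds are present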
T1 construct: purchased Invitrogen PV3872
T1 sequence (P00533 25-1210): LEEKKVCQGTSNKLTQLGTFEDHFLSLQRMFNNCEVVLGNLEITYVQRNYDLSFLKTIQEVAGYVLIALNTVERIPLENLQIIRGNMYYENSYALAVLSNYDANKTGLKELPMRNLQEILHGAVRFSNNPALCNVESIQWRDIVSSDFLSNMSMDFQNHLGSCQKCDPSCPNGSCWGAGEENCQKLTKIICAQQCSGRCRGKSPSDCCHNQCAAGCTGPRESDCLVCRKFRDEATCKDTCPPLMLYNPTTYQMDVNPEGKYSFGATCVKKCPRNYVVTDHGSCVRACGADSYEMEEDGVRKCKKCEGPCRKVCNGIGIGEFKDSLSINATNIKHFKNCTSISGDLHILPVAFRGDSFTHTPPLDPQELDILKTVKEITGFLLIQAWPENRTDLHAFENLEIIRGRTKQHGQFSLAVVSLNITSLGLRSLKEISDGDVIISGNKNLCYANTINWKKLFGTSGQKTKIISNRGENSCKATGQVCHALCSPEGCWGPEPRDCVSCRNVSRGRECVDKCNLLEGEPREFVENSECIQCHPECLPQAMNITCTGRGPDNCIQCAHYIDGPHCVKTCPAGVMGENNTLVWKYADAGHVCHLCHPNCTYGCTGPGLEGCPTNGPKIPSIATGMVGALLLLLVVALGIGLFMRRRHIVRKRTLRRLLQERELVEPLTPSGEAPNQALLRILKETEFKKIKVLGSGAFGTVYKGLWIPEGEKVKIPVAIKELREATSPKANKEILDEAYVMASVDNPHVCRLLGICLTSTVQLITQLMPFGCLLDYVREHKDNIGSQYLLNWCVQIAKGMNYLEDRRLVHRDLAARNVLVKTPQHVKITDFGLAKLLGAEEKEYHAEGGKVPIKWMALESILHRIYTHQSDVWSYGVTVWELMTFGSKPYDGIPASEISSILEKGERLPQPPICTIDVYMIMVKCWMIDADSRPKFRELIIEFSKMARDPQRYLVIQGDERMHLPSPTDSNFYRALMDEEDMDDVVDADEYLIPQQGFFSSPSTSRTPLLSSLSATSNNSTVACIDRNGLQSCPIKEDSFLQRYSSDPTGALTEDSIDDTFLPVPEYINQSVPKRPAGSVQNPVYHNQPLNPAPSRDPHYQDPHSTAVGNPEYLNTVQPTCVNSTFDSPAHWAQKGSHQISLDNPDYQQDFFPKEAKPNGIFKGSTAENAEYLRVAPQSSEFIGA

NIH3T3 cell = experiment: MTT cytotoxicity against NIH3T3 cells; type: cell-based; conditions: Mus musculus, NIH3T3; cytotoxicity, MTT, 72 h; read-out: MTT assay against NIH3T3 cell (IC50/nM)
A431 cells = experiment: ELISA assay for cell activity, EGF-treated A431 cells; type: cell-based; conditions: Homo sapiens, A-431, compound 1 h, then EGF 45 min;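 also: Serum-starved A431 cells, ELISA on lysates read as OD450 minus OD570, inhibition scaled between EGF-stimulated wells (0%) and unstimulated cell control (100%), DMSO 0.5% final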

| Structure (SMILES) | Selective inhibitory activities against cell [IC50(A431 cell)/IC50(H1975 cell)] (H1975 cells) | IC50 (H1975 cells) | IC50 (H1975 cell) | Selective inhibitory activity against cells [IC50(A431 cell)/IC50(H1975 cell)] (H1975 cell) | IC50 (A431 cell) | IC50 (wild-type EGFR kinase) | IC50 (NIH3T3 cell) | IC50 (A431 cells) |
| --- | --- | --- | --- | --- | --- | --- | --- | --- |
| C=CC(=O)Nc1cc(Nc2ncc(Cl)c(OC3CCCN(S(C)(=O)=O)CC3)n2)c(OC)cc1N(C)CCN(C)C (stereo not drawn) [Compound J-1, N-(5-(5-chloro-4-(1-(methylsulfonyl)azacycloheptane-4-oxy)pyrimidine-2-amino)-2-((2-(dimethylamino)ethyl)(methyl)amino)-4-methoxylphenyl)acrylamide] | 29.5 | 13 nM | 22 nM | 52 | 1140 nM | 20 nM | > 10000 nM | 383 nM |
| C=CC(=O)Nc1cc(Nc2nccc(OC3CN(S(=O)(=O)c4ccccc4)C3)n2)c(OC)cc1N(C)CCN(C)C [Compound J-7, N-(2-((2-(dimethylamino)ethyl)(methyl)amino)-4-methoxy-5-(4-(1-(phenylsulfonyl)azetidine-3-oxy)pyrimidine-2-amino)phenyl)acrylamide] | 3.3 | 70 nM | 66 nM | 15 | 989 nM | – | > 10000 nM | 234 nM |
| C=CC(=O)Nc1cc(Nc2ncc(Cl)c(OC3CN(S(C)(=O)=O)C3)n2)c(OC)cc1N(C)CCN(C)C [Compound J-11, N-(5-(5-chloro-4-(1-(methylsulfonyl)azetidine-3-oxy)pyrimidine-2amino)-2-((2-(dimethylamino)ethyl)(methyl)amino)-4-methoxyphenyl)acrylamide] | 10 | 38 nM | 14 nM | 113 | 1580 nM | 12 nM | > 10000 nM | 379 nM |
| C=CC(=O)Nc1cc(Nc2nccc(OC3CN(c4cccnc4)C3)n2)c(OC)cc1N(C)CCN(C)C [Compound J-17] | 1.2 | 129 nM | 121 nM | 15.5 | 1880 nM | 8 nM | > 10000 nM | 155 nM |
| C=CC(=O)Nc1cc(Nc2nccc(OC3CN(c4cnc5c(ccn5C)c4)C3)n2)c(OC)cc1N1CCC(N(C)C)CC1 [Compound J-18] | 4.3 | 256 nM | 184 nM | 16.1 | 2960 nM | 30 nM | – | 1100 nM |
| C=CC(=O)Nc1cc(Nc2ncc(Cl)c(OC3CN(C(C)=O)C3)n2)c(OC)cc1N1CCC(N(C)C)CC1 [Compound J-27] | 85 | 30 nM | 57 nM | 53.6 | 3050 nM | 114 nM | 9830 nM | 2550 nM |
| C=CC(=O)Nc1cc(Nc2ncc(Cl)c(OC3CN(C(C)=O)C3)n2)c(OC)cc1N(C)CCN(C)C [Compound J-28] | 32.5 | 20 nM | 11 nM | 286.3 | 3150 nM | 49 nM | > 10000 nM | 649 nM |
| C=CC(=O)Nc1cc(Nc2ncc(F)c(OC3CN(S(C)(=O)=O)C3)n2)c(OC)cc1N1CCC(N(C)C)CC1 [Compound J-29] | 7 | 23 nM | 17 nM | 64.5 | 1100 nM | 6 nM | > 10000 nM | 156 nM |
| C=CC(=O)Nc1cc(Nc2ncc(F)c(OC3CN(C(C)=O)C3)n2)c(OC)cc1N1CCC(N(C)C)CC1 [Compound J-30] | 17 | 113 nM | 121 nM | 50 | 6010 nM | 95 nM | > 10000 nM | 1910 nM |
| C=CC(=O)Nc1cc(Nc2ncc(C(F)(F)F)c(OC3CN(S(C)(=O)=O)C3)n2)c(OC)cc1N1CCC(N(C)C)CC1 [Compound J-31] | 84 | 5 nM | 4 nM | 429 | 1720 nM | 27 nM | > 3000 nM | 419 nM |
